# Source: US12459922B2 (Gilead Sciences, Inc., priority 2022, dated 2025)
# System: endogenous cellular STAT1 (phosphorylated at Tyr701) in NCI-H1373 cells
# Assay: Phospho-STAT1 (Tyr701) LANCE Ultra TR-FRET Detection Assay
# Type: cell-based
# Conditions: Homo sapiens, NCI-H1373, 48 h, phospho-STAT1 (Tyr701) induction, read-out: NH1373 pSTAT1 EC50
row,EC50 [nM],SMILES
1,14.2,"Nc1nc(-c2cc3ncn(CCC[C@H](COC(F)F)Nc4cn[nH]c(=O)c4C(F)(F)F)c(=O)c3cc2F)ncc1Cl [Example 426, (R)-7-(4-amino-5-chloropyrimidin-2-yl)-3-(5-(difluoromethoxy)-4-((6-oxo-5-(trifluoromethyl)-1,6-dihydropyridazin-4-yl)amino)pentyl)-6-fluoroquinazolin-4(3H)-one]"
2,2.87,"[2H]C([2H])([2H])OC[C@@H](CCCn1ccc2cc(-c3ncc(C(F)(F)F)c(N)n3)c(F)cc2c1=O)Nc1cn[nH]c(=O)c1C(F)(F)F [Example 427, 6-[4-amino-5-(trifluoromethyl)pyrimidin-2-yl]-7-fluoro-2-[(4R)-4-[[6-oxo-5-(trifluoromethyl)-1H-pyridazin-4-yl]amino]-5-(trideuteriomethoxy)pentyl]isoquinolin-1-one]"
3,4.17,"[2H]C([2H])([2H])OC[C@@H](CCCn1ccc2cc(-c3ncc(C(F)F)cn3)c(F)cc2c1=O)Nc1cn[nH]c(=O)c1C(F)(F)F [Example 428, 6-[5-(difluoromethyl)pyrimidin-2-yl]-7-fluoro-2-[(4R)-4-[[6-oxo-5-(trifluoromethyl)-1H-pyridazin-4-yl]amino]-5-(trideuteriomethoxy)pentyl]isoquinolin-1-one]"
4,7.21,"[2H]C([2H])([2H])OC[C@@H](CCCn1ccc2cc(-c3ncc(C(F)F)c(N)n3)c(F)cc2c1=O)Nc1cn[nH]c(=O)c1C(F)(F)F [Example 429, 6-[4-amino-5-(difluoromethyl)pyrimidin-2-yl]-7-fluoro-2-[(4R)-4-[[6-oxo-5-(trifluoromethyl)-1H-pyridazin-4-yl]amino]-5-(trideuteriomethoxy)pentyl]isoquinolin-1-one]"
5,2.63,"[2H]C([2H])([2H])OC[C@@H](CCCn1cnc2cc(-c3ncc(C(F)(F)F)cn3)c(F)cc2c1=O)Nc1cn[nH]c(=O)c1C(F)(F)F [Example 430, 6-fluoro-3-[(4R)-4-[[6-oxo-5-(trifluoromethyl)-1H-pyridazin-4-yl]amino]-5-(trideuteriomethoxy)pentyl]-7-[5-(trifluoromethyl)pyrimidin-2-yl]quinazolin-4-one]"
6,6.42,[2H]C([2H])([2H])OC[C@@H](CCCn1cnc2cc(-c3ncc(C(F)F)cn3)c(F)cc2c1=O)Nc1cn[nH]c(=O)c1C(F)(F)F [Example 431]
7,12.7,[2H]C([2H])([2H])OC[C@@H](CCCn1cnc2cc(-c3ncc(C(F)(F)F)c(N)n3)c(F)cc2c1=O)Nc1cn[nH]c(=O)c1C(F)(F)F [Example 432]
8,15.6,[2H]C([2H])([2H])OC[C@@H](CCCn1cnc2cc(-c3ncc(C(F)F)c(N)n3)c(F)cc2c1=O)Nc1cn[nH]c(=O)c1C(F)(F)F [Example 433]
9,13,[2H]C([2H])([2H])OC[C@@H](CCCn1ccc2cc(-c3ccc(C(F)(F)F)cn3)c(F)cc2c1=O)Nc1cn[nH]c(=O)c1C(F)(F)F [Example 434]
10,2.83,"O=c1[nH]ncc(N[C@H](CCCn2ccc3cc(-c4ncc(C(F)(F)F)cn4)c(F)cc3c2=O)COC(F)(F)F)c1C(F)(F)F [Example 435, (R)-7-fluoro-2-(4-((6-oxo-5-(trifluoromethyl)-1,6-dihydropyridazin-4-yl)amino)-5-(trifluoromethoxy)pentyl)-6-(5-(trifluoromethyl)pyrimidin-2-yl)isoquinolin-1(2H)-one]"
11,23.1,"Nc1nc(-c2cc3ccn(Cc4cccc(Nc5cn[nH]c(=O)c5C(F)(F)F)c4)c(=O)c3cc2F)ncc1C(F)(F)F [Example 438, 6-(4-amino-5-(trifluoromethyl)pyrimidin-2-yl)-7-fluoro-2-(3-((6-oxo-5-(trifluoromethyl)-1,6-dihydropyridazin-4-yl)amino)benzyl)isoquinolin-1(2H)-one]"
12,534,"O=c1[nH]ncc(N[C@H](CCCn2ccc3cc(-c4nc5n(n4)CCNC5)c(F)cc3c2=O)COC(F)F)c1C(F)(F)F [Example 439, (R)-2-(5-(difluoromethoxy)-4-((6-oxo-5-(trifluoromethyl)-1,6-dihydropyridazin-4-yl)amino)pentyl)-7-fluoro-6-(5,6,7,8-tetrahydro-[1,2,4]triazolo[1,5-a]pyrazin-2-yl)isoquinolin-1(2H)-one]"
13,1750,"O=c1[nH]ncc(N[C@H]2CCN[C@@H]2CCn2ccc3cc(-c4ncc(C(F)(F)F)cn4)c(F)cc3c2=O)c1C(F)(F)F [Example 440, 7-fluoro-2-(2-((2R,3S)-3-((6-oxo-5-(trifluoromethyl)-1,6-dihydropyridazin-4-yl)amino)pyrrolidin-2-yl)ethyl)-6-(5-(trifluoromethyl)pyrimidin-2-yl)isoquinolin-1(2H)-one]"
14,1850,"C[C@H](Nc1cn[nH]c(=O)c1C(F)(F)F)[C@@H](O)CCn1ccc2cc(-c3ncc(C(F)(F)F)cn3)c(F)cc2c1=O [Example 442, 7-fluoro-2-((3S,4S)-3-hydroxy-4-((6-oxo-5-(trifluoromethyl)-1,6-dihydropyridazin-4-yl)amino)pentyl)-6-(5-(trifluoromethyl)pyrimidin-2-yl)isoquinolin-1(2H)-one]"
15,273,"O=c1[nH]ncc(N[C@H]2CC[C@@H](Cn3ccc4cc(-c5ncc(C(F)(F)F)cn5)c(F)cc4c3=O)C2)c1C(F)(F)F [Example 443, 7-fluoro-2-(((1R,3S)-3-((6-oxo-5-(trifluoromethyl)-1,6-dihydropyridazin-4-yl)amino)cyclopentyl)methyl)-6-(5-(trifluoromethyl)pyrimidin-2-yl)isoquinolin-1(2H)-one]"

# More lines, now with the values behind:
row,SMILES,EC50 [nM]
1,"COc1ncc(-c2cc3ccn(CCC[C@H](COC(F)F)Nc4cn[nH]c(=O)c4C(F)(F)F)c(=O)c3cc2F)nc1N [Example 415, (R)-6-(6-amino-5-methoxypyrazin-2-yl)-2-(5-(difluoromethoxy)-4-((6-oxo-5-(trifluoromethyl)-1,6-dihydropyridazin-4-yl)amino)pentyl)-7-fluoroisoquinolin-1(2H)-one]",2.49
2,"Nc1nc(-c2cc3ccn(CCC[C@H](COC(F)F)Nc4cn[nH]c(=O)c4C(F)(F)F)c(=O)c3cc2F)cnc1C(F)(F)F [Example 416, (R)-6-(6-amino-5-(trifluoromethyl)pyrazin-2-yl)-2-(5-(difluoromethoxy)-4-((6-oxo-5-(trifluoromethyl)-1,6-dihydropyridazin-4-yl)amino)pentyl)-7-fluoroisoquinolin-1(2H)-one]",6.78
3,"O=c1[nH]ncc(N[C@H](CCCn2ccc3cc(-c4cnc(C(F)(F)F)cn4)c(F)cc3c2=O)COC(F)F)c1C(F)(F)F [Example 417, (R)-2-(5-(difluoromethoxy)-4-((6-oxo-5-(trifluoromethyl)-1,6-dihydropyridazin-4-yl)amino)pentyl)-7-fluoro-6-(5-(trifluoromethyl)pyrazin-2-yl)isoquinolin-1(2H)-one]",2.28
4,"Nc1nc(-c2cc3ccn(CCC[C@H](COC(F)F)Nc4cn[nH]c(=O)c4C(F)(F)F)c(=O)c3c(F)c2F)cnc1C(F)(F)F [Example 418, (R)-6-(6-amino-5-(trifluoromethyl)pyrazin-2-yl)-2-(5-(difluoromethoxy)-4-((6-oxo-5-(trifluoromethyl)-1,6-dihydropyridazin-4-yl)amino)pentyl)-7,8-difluoroisoquinolin-1(2H)-one]",4.58
5,"Nc1nc(-c2cc3ncn(CCC[C@H](COC(F)F)Nc4cn[nH]c(=O)c4C(F)(F)F)c(=O)c3cc2F)cnc1C(F)(F)F [Example 419, (R)-7-(6-amino-5-(trifluoromethyl)pyrazin-2-yl)-3-(5-(difluoromethoxy)-4-((6-oxo-5-(trifluoromethyl)-1,6-dihydropyridazin-4-yl)amino)pentyl)-6-fluoroquinazolin-4(3H)-one]",14.2
6,"O=c1[nH]ncc(N[C@H](CCCn2cnc3cc(-c4cnc(C(F)(F)F)cn4)c(F)cc3c2=O)COC(F)F)c1C(F)(F)F [Example 420, (R)-3-(5-(difluoromethoxy)-4-((6-oxo-5-(trifluoromethyl)-1,6-dihydropyridazin-4-yl)amino)pentyl)-6-fluoro-7-(5-(trifluoromethyl)pyrazin-2-yl)quinazolin-4(3H)-one]",9.41
7,"Nc1nc(-c2cc3ccn(CCC[C@H](COC(F)F)Nc4cn[nH]c(=O)c4C(F)(F)F)c(=O)c3cc2F)n[nH]1 [Example 421, (R)-6-(5-amino-1H-1,2,4-triazol-3-yl)-2-(5-(difluoromethoxy)-4-((6-oxo-5-(trifluoromethyl)-1,6-dihydropyridazin-4-yl)amino)pentyl)-7-fluoroisoquinolin-1(2H)-one]",110
8,"O=c1[nH]ncc(N[C@H](CCCn2ccc3cc(-c4cnc(N5CCOCC5)cn4)c(F)cc3c2=O)COC(F)F)c1C(F)(F)F [Example 422, (R)-2-(5-(difluoromethoxy)-4-((6-oxo-5-(trifluoromethyl)-1,6-dihydropyridazin-4-yl)amino)pentyl)-7-fluoro-6-(5-morpholinopyrazin-2-yl)isoquinolin-1(2H)-one]",87.9
9,"O=c1[nH]ncc(N[C@H](CCCn2ccc3cc(-c4cnc(N5CCNCC5)cn4)c(F)cc3c2=O)COC(F)F)c1C(F)(F)F [Example 423, (R)-2-(5-(difluoromethoxy)-4-((6-oxo-5-(trifluoromethyl)-1,6-dihydropyridazin-4-yl)amino)pentyl)-7-fluoro-6-(5-(piperazin-1-yl)pyrazin-2-yl)isoquinolin-1(2H)-one]",446
10,"O=c1[nH]ncc(N[C@H](CCCn2ccc3cc(-c4cnc(C(F)F)cn4)c(F)cc3c2=O)COC(F)F)c1C(F)(F)F [Example 424, (R)-2-(5-(difluoromethoxy)-4-((6-oxo-5-(trifluoromethyl)-1,6-dihydropyridazin-4-yl)amino)pentyl)-6-(5-(difluoromethyl)pyrazin-2-yl)-7-fluoroisoquinolin-1(2H)-one]",3.11
11,"O=c1[nH]ncc(N[C@H](CCCn2cnc3cc(-c4ccc5c(n4)NCCO5)c(F)cc3c2=O)COC(F)F)c1C(F)(F)F [Example 425, (R)-3-(5-(difluoromethoxy)-4-((6-oxo-5-(trifluoromethyl)-1,6-dihydropyridazin-4-yl)amino)pentyl)-7-(3,4-dihydro-2H-pyrido[3,2-b][1,4]oxazin-6-yl)-6-fluoroquinazolin-4(3H)-one]",9.83
